Measurements as given in article PMC6100301, “Cytotoxic and N-Acetyltransferase Inhibitory Meroterpenoids from Ganoderma cochlear” (Molecules : A Journal of Synthetic Chemistry and Natural …, 2018).

Experiments:
recombinant NAT2 = target: T1, recombinant NAT2 (Homo sapiens, UniProt P11245); assay: N-Acetyltransferase (NAT) inhibition, fluorescent probe assay; assay type: biochemical; conditions: 30 min incubation; for NAT2 inhibition at 10 μM: positive control quercetin 10 μM (Figure 4)
T1 construct: purchased Corning Company, Corning, NY, USA 456282
T1 sequence (P11245 1-290): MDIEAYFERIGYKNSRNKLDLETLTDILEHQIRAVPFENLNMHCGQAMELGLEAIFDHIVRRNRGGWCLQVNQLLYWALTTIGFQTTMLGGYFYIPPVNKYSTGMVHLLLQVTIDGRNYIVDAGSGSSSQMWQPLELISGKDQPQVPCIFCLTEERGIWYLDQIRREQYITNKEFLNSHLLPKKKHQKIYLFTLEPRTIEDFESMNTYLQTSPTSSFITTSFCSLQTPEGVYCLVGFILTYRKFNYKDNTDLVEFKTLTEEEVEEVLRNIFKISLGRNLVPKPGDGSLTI

[1] = test system: H1975 human lung cancer cell line; assay: Cytotoxicity, CCK-8 cell viability assay; assay type: cell-based; conditions: for Cytotoxic activity against H1975 cells at 40 μM: screening (Figure S46); for IC50: Homo sapiens, NCI-H1975, H1975 cells, CCK-8 assay, 24 h drug treatment
Method: (§1) All the isolated meroterpenoids were evaluated for their cytotoxic activity against three human lung cancer cell lines (H1975, PC9, A549). […] Besides, 2 and 5 are also found to be active against H1975 and PC9 cells at 40 μM. With this, the cytotoxic potency of 2 and 5 toward three cancer cell lines were further determined using the CCK-8 assay.
(§2) The human NSCLC cell line (NCL-H1975) was purchased from Shanghai Cell Bank of Chinese Academy of Sciences, (Shanghai, China). PC9 and A549 were obtained from American Type Culture Collection (ATCC, Manassas, VA, USA). Cells were cultured in DMEM (Gibco, Grand Island, NY, USA) with 4.5 g/L glucose and 10% FBS (Gibco, Grand Island, NY, USA). Erlotinib used in the experiments were purchased from Selleck (Selleck Chemicals, Houston, TX, USA). Cytotoxicity was determined using the previously described method. Three human lung cancer cell lines were incubated in 96-well plates (5000 cells/well) respectively to attach overnight and then exposed to drug treatments for additional 24 h. And the CCK solution was added, after 2 h of incubation, the absorbance was measured at a wavelength of 450 nm. Cell viability was measured by a TransDetect® Cell Counting Kit (TransGen Biotech, Beijing, China). The IC50 values were calculated using the GraphPad Prism 5.0 (GraphPad Software, San Diego, CA, USA).

[2] = test system: A549 human lung cancer cell line; assay: Cytotoxicity, CCK-8 cell viability assay; assay type: cell-based; conditions: for Cytotoxic activity against A549 cells at 40 μM: screening (Figure S46); for IC50: Homo sapiens, A549 cells, CCK-8 assay, 24 h drug treatment
Method: as §1, §2

[3] = test system: PC9 human lung cancer cell line; assay: Cytotoxicity, CCK-8 cell viability assay; assay type: cell-based; conditions: for Cytotoxic activity against PC9 cells at 40 μM: screening (Figure S46); for IC50: Homo sapiens, PC-9, PC9 cells, CCK-8 assay, 24 h drug treatment
Method: as §1, §2

`CC(C)=CCCC(C)=CCCC1=C[C@](c2cc(O)ccc2O)(c2oc(-c3cc(O)ccc3O)cc2CCC=C(C)CCC=C(C)C)OC1=O` [(+)-1, (+)-gancochlearol C] was tested, and the “NAT2 inhibition at 10 μM” value (recombinant NAT2) was “more potent than quercetin” and the IC50 (recombinant NAT2; 0.5-10 μM, read-out: IC50 toward NAT2) was 5.29 µM.
In the case of `CC(C)=CCCC(C)=CCCC1=C[C@@](c2cc(O)ccc2O)(c2oc(-c3cc(O)ccc3O)cc2CCC=C(C)CCC=C(C)C)OC1=O` [(−)-1, (−)-gancochlearol C], the “NAT2 inhibition at 10 μM” value (recombinant NAT2) is reported as “could inhibit NAT2”.
With `CC(=O)OC/C(=C\Cc1cc(O)ccc1O)CC/C=C(\C)CCC=C(C)C` [Compound 2, Gancochlearol D] the “Cytotoxic activity against H1975 cells at 40 μM” value [1] was “active”, the IC50 [1] was 32.4 µM and the “Cytotoxic activity against A549 cells at 40 μM” value [2] was “cytotoxic”. For the same compound, the IC50 [2] was 30.7 µM, the “Cytotoxic activity against PC9 cells at 40 μM” value [3] was “active” and the IC50 [3] was 40.6 µM.
`CC(C)=CCC/C(C)=C/CC/C(=C/Cc1cc(O)ccc1O)CO` [Compound 5, ganomycin F] was tested, and the “Cytotoxic activity against H1975 cells at 40 μM” value [1] was “active”, the IC50 [1] was 19.5 µM and the “Cytotoxic activity against A549 cells at 40 μM” value [2] was “most active”. For the same compound, the IC50 [2] was 21.6 µM, the “Cytotoxic activity against PC9 cells at 40 μM” value [3] was “active” and the IC50 [3] was 35.7 µM.
`C#Cc1cccc(Nc2ncnc3cc(OCCOC)c(OCCOC)cc23)c1` [Erlotinib, reference compound] gave an IC50 [1] of 7.66 µM, an IC50 [2] of 4.59 µM and an IC50 [3] of 0.085 µM.
